Test results taken from patent publication US10780069B2, “Use of GC-1 in transplant related population” (University of Pittsburgh—Of the Commonwealth System of …, priority 2017, dated 2020).
“Also recorded” adds a separate entry of the source.

Columns and labels:
[1] = system: β-catenin-TCF4 reporter activity in HepG2 cells (exon-3-deletion mutant of CTNNB1); test: TopFlash reporter assay in HepG2 cells; type: cell-based, human; conditions: (methods: 5-7 μM, 24 hours), vs DMSO
Text: (§1) Three liver tumor cell lines Hep3B, HepG2 and Snu-398 cells were obtained from ATCC (Manassas, Va.). Cells were transfected simultaneously with Renilla reniformis luciferase (pRL-TK; Promega, Madison, Wis.) as a transfection control and TopFlash firefly luciferase plasmids (Upstate Biotechnology, Lake Placid, N.Y.), which contains three copies of the Tcf/Lef sites upstream of a thymidine kinase (TK) promoter and the firefly luciferase gene using Lipofectamine 2000 (Life Technologies). Twenty-four hours after transfection, cells were treated with either DMSO (Fisher Scientific) or 5-7 μM GC-1 (Medchem Express, Monmouth Junction, N.J.) for 24 hours. Lysates were harvested using the Dual-Luciferase Reporter Assay System (Promega, Madison, Wis.). Firefly luciferase signals were normalized to Renilla luciferase and ratio between groups compared by student's t-test to determine significance. P<0.05 was considered significant.

[2] = system: β-catenin-TCF4 reporter activity in Snu-398 cells (point-mutant β-catenin); test: TopFlash reporter assay in Snu-398 cells; type: cell-based, human; conditions: 7 μM GC-1 (methods: 5-7 μM, 24 hours), vs DMSO
Text: as §1

Cc1cc(OCC(=O)O)cc(C)c1Cc1ccc(O)c(C(C)C)c1 [GC-1, Sobetirome]
TopFlash luciferase reporter activity [1]: no significant effect; also recorded: insignificant differences
TopFlash luciferase reporter activity [2]: no significant effect; also recorded: insignificant differences
